The source of these data is patent publication US9737516B2, “Bicyclic heterocycles as bet protein inhibitors” (Incyte Corporation, priority 2013, dated 2017).

One assay concerns the target BRD4-BD1 (Homo sapiens (Human), UniProt O60885). Put plainly: BRD4 AlphaScreen assay (BRD4-BD1). The class given is binding. The settings on record: H4Ac4 peptide, 3.8 nM BRD4-BD1, read-out: BRD4 BD-1 enzyme IC50. The procedure: (§1) BRD4-BD1 and BRD4-BD2 assays were conducted in white 384-well polystyrene plate in a final volume of 20 μL for BD1 and 40 μL for BD2. Inhibitors were first serially diluted in DMSO and added to the plate wells before the addition of other reaction components. The final concentration of DMSO in the assay was 1.25% (BD1) and 0.83% (BD2). The assays were carried out at room temperature for 75 min. in the assay buffer (50 mM HEPES, pH 7.4, 100 mM NaCl, 0.05% CHAPS, 0.01% BSA), containing 50 nM Biotin-labeled tetra-acetylated histone H4 peptide (H4Ac4), 3.8 nM (BRD4-BD1, BPS Bioscience #31040) or 20 nM (BRD4-BD2, BPS Bioscience #31041). The reaction followed by the addition of 20 μL of assay buffer supplemented with Streptavidin donor beads (PerkinElmer 6760002) and GSH Acceptor beads (PerkinElmer-AL109C) at 4 µg/mL under reduced light. After plate sealing, the plate was incubated in the dark at room temperature for 75 min. before reading on a PHERAstar FS plate reader (BMG Labtech). IC50 determination was performed by fitting the curve of percent control activity versus the log of the inhibitor concentration using the GraphPad Prism 5.0 software. IC50 data for the Examples is presented in Table 1 as determined by Assay A1.
Background: Bead proximity is the source of the signal in Alpha formats.

For another assay, the target named is BRD4-BD2 (Homo sapiens (Human), UniProt O60885). The assay is described as follows: BRD4 AlphaScreen assay (BRD4-BD2). The format is binding. As to conditions: H4Ac4 peptide, 20 nM BRD4-BD2, read-out: BRD4 BD-2 enzyme IC50. The procedure: as §1
The subject of a further assay is KMS.12.BM cells. The assay is described as follows: KMS.12.BM cell viability assay (ATP quantitation, Cell Titer-GLO). The format is cell-based. As to conditions: Homo sapiens, 72 h, 3 days, concentration required for 50% cell death, read-out: KMS cellular IC50. The procedure: KMS.12.BM cell line (human myeloma) was purchased from JCRB (Osaka, Japan) and maintained in RPMI with 10% FBS culture medium. To measure the cytotoxic activity of the compounds through ATP quantitation, the KMS.12.BM cells are plated in the RPMI culture medium at 5000 cells/well/per 100 μL into a 96-well polystyrene clear black tissue culture plate (Greiner-bio-one through VWR, NJ), in the presence or absence of a concentration range of test compounds. After 3 days, […] Cell Titer-GLO Luminescent (Promega, Madison, Wis.) cell culture agent is added to each well for 10 minutes at room temperature to stabilize the luminescent signal. This determines the number of viable cells in culture based on quantitation of the ATP present, which signals the presence of metabolically active cells. Luminescence is measured with the Top Count 384 (Packard Bioscience through Perkin Elmer, Boston, Mass.). Compound inhibition is determined relative to cells cultured with no drug and the IC50 is reported as the compound concentration required for 50% cell death. IC50 data for the Examples is presented in Table 2 as determined by Assay B1.
(In general: Cellular ATP, detected with luciferase, serves as a proxy for viable cell number.)

The subject of another assay is C-myc in KMS.12.BM cells. The assay is described as follows: KMS.12.BM C-myc ELISA assay. The format is cell-based. As to conditions: Homo sapiens, 2 hours. The procedure: KMS.12.BM cell line (human myeloma) was purchased from JCRB (Osaka, Japan) and maintained in RPMI with 10% FBS culture medium. To measure the C-myc inhibitory activity of the compounds, the KMS.12.BM cells are plated in the RPMI culture medium at 75000 cells/well/per 200 μL into a 96-well flat bottom polystyrene tissue culture plate (Corning through VWR, N.J.), in the presence or absence of a concentration range of test compounds. After 2 hours, cell are pelleted and lysed with Cell Extraction Buffer (BioSource, Carlsbad, Calif.) in the presence of protease inhibitors (Life Technologies, Grand Island, N.Y. and Sigma, St Louis, Mo.). Clarified lyses are tested in a C-myc commercial ELISA (Life Technologies, Grand Island, N.Y.). Compound inhibition is determined relative to cells cultured with no drug and the IC50 is reported as the compound concentration required for 50% C-myc inhibition. IC50 data for the Examples is presented in Table 3 as determined by Assay C1.
For orientation: In an ELISA, binding on a coated surface is turned into a signal by an enzyme label.

One may read the pIC50 as the negative decadic logarithm of the IC50, by convention in mol/L.

Molecules are shown by their SMILES. pIC50: −log10 of the molar value. Where a name gives a salt, the structure may show the parent alone.

With `Cn1cc(-c2cc3[nH]c(=O)[nH]c3cc2Oc2ccc(F)cc2F)c2cc[nH]c2c1=O` [Example 1, 5-(2,4-Difluorophenoxy)-6-(6-methyl-7-oxo-6,7-dihydro-1H-pyrrolo[2,3-c]pyridin-4-yl)-1,3-dihydro-2H-benzimidazol-2-one], the pIC50 on BRD4-BD1 was ≥ 7.00; at BRD4-BD2, ≥ 7.00; with KMS.12.BM cells, ≥ 6.00; with C-myc in KMS.12.BM cells, ≥ 6.00.
As for `Cn1cc(-c2cc3[nH]c(=O)n(C)c3cc2Oc2ccc(F)cc2F)c2cc[nH]c2c1=O` [Example 2, 6-(2,4-Difluorophenoxy)-1-methyl-5-(6-methyl-7-oxo-6,7-dihydro-1H-pyrrolo[2,3-c]pyridin-4-yl)-1,3-dihydro-2H-benzimidazol-2-one], the pIC50 on BRD4-BD1 is ≥ 7.00; on BRD4-BD2 it was ≥ 7.00; in the assay with KMS.12.BM cells, ≥ 6.00; in the assay on C-myc in KMS.12.BM cells, ≥ 6.00.
For the compound `Cn1cc(-c2cc3ncn(C)c3cc2Oc2ccc(F)cc2F)c2cc[nH]c2c1=O` [Example 3, 4-[6-(2,4-Difluorophenoxy)-1-methyl-1H-benzimidazol-5-yl]-6-methyl-1,6-dihydro-7H-pyrrolo[2,3-c]pyridin-7-one], the pIC50 at BRD4-BD1 was ≥ 7.00; on BRD4-BD2 it was ≥ 7.00; in the assay on KMS.12.BM cells it was ≥ 6.00; in the assay on C-myc in KMS.12.BM cells it was ≥ 6.00.
For the compound `Cc1nc2cc(-c3cn(C)c(=O)c4[nH]ccc34)c(Oc3ccc(F)cc3F)cc2n1C` [Example 4, 4-[6-(2,4-Difluorophenoxy)-1,2-dimethyl-1H-benzimidazol-5-yl]-6-methyl-1,6-dihydro-7H-pyrrolo[2,3-c]pyridin-7-one], the pIC50 at BRD4-BD1 was ≥ 7.00; at BRD4-BD2 it was ≥ 7.00; in the assay with KMS.12.BM cells it was ≥ 6.00; in the assay on C-myc in KMS.12.BM cells, ≥ 6.00.
With `Cn1cc(-c2cc3[nH]cnc3cc2Oc2ccc(F)cc2F)c2cc[nH]c2c1=O` [Example 5, 4-[5-(2,4-Difluorophenoxy)-1H-benzimidazol-6-yl]-6-methyl-1,6-dihydro-7H-pyrrolo[2,3-c]pyridin-7-one trifluoroacetate], the pIC50 at BRD4-BD1 was ≥ 7.00; at BRD4-BD2, ≥ 7.00; with KMS.12.BM cells, ≥ 6.00; in the assay with C-myc in KMS.12.BM cells, ≥ 6.00.
Turning to `Cc1nc2cc(Oc3ccc(F)cc3F)c(-c3cn(C)c(=O)c4[nH]ccc34)cc2[nH]1` [Example 6, 4-[5-(2,4-Difluorophenoxy)-2-methyl-1H-benzimidazol-6-yl]-6-methyl-1,6-dihydro-7H-pyrrolo[2,3-c]pyridin-7-one trifluoroacetate], the pIC50 at BRD4-BD1 is ≥ 7.00; at BRD4-BD2, ≥ 7.00; in the assay on KMS.12.BM cells, ≥ 6.00; in the assay with C-myc in KMS.12.BM cells, ≥ 6.00.
`Cn1cc(-c2cc3c(cc2Oc2ccc(F)cc2F)n(C)c(=O)n3C)c2cc[nH]c2c1=O` [Example 7, 5-(2,4-Difluorophenoxy)-1,3-dimethyl-6-(6-methyl-7-oxo-6,7-dihydro-1H-pyrrolo[2,3-c]pyridin-4-yl)-1,3-dihydro-2H-benzimidazol-2-one]: the pIC50 on BRD4-BD1 is 6.00 to 7.00; at BRD4-BD2, ≥ 7.00; with KMS.12.BM cells, ≥ 6.00.
For `Cn1cc(-c2cc3[nH]nnc3cc2Oc2ccc(F)cc2F)c2cc[nH]c2c1=O` [Example 8, 4-(5-(2,4-difluorophenoxy)-1H-benzo[d][1,2,3]triazol-6-yl)-6-methyl-1H-pyrrolo[2,3-c]pyridin-7(6H)-one], the pIC50 is ≥ 7.00 on BRD4-BD1, ≥ 7.00 on BRD4-BD2, ≥ 6.00 in the assay with KMS.12.BM cells and ≥ 6.00 in the assay with C-myc in KMS.12.BM cells.
Turning to `Cn1cc(-c2cc3[nH]cnc3cc2Oc2ccc(F)cc2F)c2cn[nH]c2c1=O` [Example 9, 4-[6-(2,4-Difluorophenoxy)-1H-benzimidazol-5-yl]-6-methyl-1,6-dihydro-7H-pyrazolo[3,4-c]pyridin-7-one trifluoroacetate], the pIC50 on BRD4-BD1 is ≥ 7.00; on BRD4-BD2, ≥ 7.00; with KMS.12.BM cells it was ≥ 6.00; in the assay on C-myc in KMS.12.BM cells, ≥ 6.00.
As to `Cn1cc(-c2cc3c(cc2Oc2ccc(F)cc2F)n(C)c(=O)n3C)c2cn[nH]c2c1=O` [Example 10, 4-[6-(2,4-Difluorophenoxy)-1,3-dimethyl-2-oxo-2,3-dihydro-1H-benzimidazol-5-yl]-6-methyl-1,6-dihydro-7H-pyrazolo[3,4-c]pyridin-7-one], the pIC50 at BRD4-BD1 is ≥ 7.00; at BRD4-BD2, ≥ 7.00; with KMS.12.BM cells, ≥ 6.00; in the assay on C-myc in KMS.12.BM cells it was ≥ 6.00.
Turning to `Cn1cc(-c2cc3[nH]cnc3cc2OCC2CCC2)c2cc[nH]c2c1=O` [Example 11, 4-[5-(Cyclobutylmethoxy)-1H-benzimidazol-6-yl]-6-methyl-1,6-dihydro-7H-pyrrolo[2,3-c]pyridin-7-one], the pIC50 on BRD4-BD1 was ≥ 7.00; at BRD4-BD2, ≥ 7.00; in the assay on KMS.12.BM cells, ≥ 6.00; in the assay on C-myc in KMS.12.BM cells it was ≥ 6.00.
On to `CCn1cnc2cc(OCC3CCC3)c(-c3cn(C)c(=O)c4[nH]ccc34)cc21` [Example 12, 4-[5-(Cyclobutylmethoxy)-1-ethyl-1H-benzimidazol-6-yl]-6-methyl-1,6-dihydro-7H-pyrrolo[2,3-c]pyridin-7-one], for which the pIC50 is ≥ 7.00 on BRD4-BD1, ≥ 7.00 on BRD4-BD2 and ≥ 6.00 in the assay with KMS.12.BM cells.
Consider `CCn1cnc2cc(-c3cn(C)c(=O)c4[nH]ccc34)c(OCC3CCC3)cc21` [Example 13, 4-[6-(Cyclobutylmethoxy)-1-ethyl-1H-benzimidazol-5-yl]-6-methyl-1,6-dihydro-7H-pyrrolo[2,3-c]pyridin-7-one], for which the pIC50 on BRD4-BD1 was ≥ 7.00; at BRD4-BD2, ≥ 7.00; in the assay with KMS.12.BM cells it was ≥ 6.00; in the assay on C-myc in KMS.12.BM cells, ≥ 6.00.
Regarding `Cn1cc(-c2cc3c(cc2OCC2CCC2)ncn3C)c2cc[nH]c2c1=O` [Example 14, 4-[5-(Cyclobutylmethoxy)-1-methyl-1H-benzimidazol-6-yl]-6-methyl-1,6-dihydro-7H-pyrrolo[2,3-c]pyridin-7-one], the pIC50 on BRD4-BD1 was ≥ 7.00; on BRD4-BD2, ≥ 7.00; in the assay on KMS.12.BM cells it was ≥ 6.00; in the assay with C-myc in KMS.12.BM cells, ≥ 6.00.
Take `Cn1cc(-c2cc3ncn(C)c3cc2OCC2CCC2)c2cc[nH]c2c1=O` [Example 15, 4-[6-(Cyclobutylmethoxy)-1-methyl-1H-benzimidazol-5-yl]-6-methyl-1,6-dihydro-7H-pyrrolo[2,3-c]pyridin-7-one]: the pIC50 at BRD4-BD1 is ≥ 7.00; at BRD4-BD2, ≥ 7.00; in the assay with KMS.12.BM cells, ≥ 6.00; in the assay on C-myc in KMS.12.BM cells, ≥ 6.00.
`Cn1cc(-c2cc3c(cc2OCC2CCC2)ncn3Cc2ccccc2)c2cc[nH]c2c1=O` [Example 16, 4-[5-(Cyclobutylmethoxy)-1-benzyl-1H-benzimidazol-6-yl]-6-methyl-1,6-dihydro-7H-pyrrolo[2,3-c]pyridin-7-one]: the pIC50 at BRD4-BD1 was 6.00 to 7.00; on BRD4-BD2 it was ≥ 7.00.
With `Cn1cc(-c2cc3[nH]c(C4CCCC4)nc3cc2OCC2CCC2)c2cc[nH]c2c1=O` [Example 21, 4-[5-(Cyclobutylmethoxy)-2-cyclopentyl-1H-benzimidazol-6-yl]-6-methyl-1,6-dihydro-7H-pyrrolo[2,3-c]pyridin-7-one bis(trifluoroacetate)], the pIC50 on BRD4-BD1 is ≥ 7.00; on BRD4-BD2 it was ≥ 7.00; with KMS.12.BM cells it was ≥ 6.00.
As to `Cn1cc(-c2cc3[nH]c(CCC(=O)O)nc3cc2OCC2CCC2)c2cc[nH]c2c1=O` [Example 22, Ammonium 3-[5-(cyclobutylmethoxy)-6-(6-methyl-7-oxo-6,7-dihydro-1H-pyrrolo[2,3-c]pyridin-4-yl)-1H-benzimidazol-2-yl]propanoate], the pIC50 at BRD4-BD1 is ≥ 7.00; at BRD4-BD2, ≥ 7.00; in the assay on KMS.12.BM cells, 5.00 to 6.00.
